Experimental data reported in patent US20050203100A1, “Use of an alfa2-adrenoreceptor antagonist for cns-related diseases” (priority 2002, published 2005).
Entries after “also recorded” stand apart in the source; their conditions may differ.

Key:
[1] = tested on: startle reflex and its prepulse inhibition in rats; experiment: Acoustic startle reactivity and prepulse inhibition (PPI) in rats; assay type: in vivo; conditions: compound given 20 min before measurement, vs vehicle, FIG. 1
Procedure: (§1) In order to study the effect of alpha2-antagonists on startle reflex and its prepulse-inhibition, groups of rats (n=10/group) were pre-treated with the alpha2C-antagonist or vehicle 20 min before measurement of the acoustic startle reactivity and PPI in a test system designed for startle studies (SR-LAB, San Diego Instruments, CA, USA). In a subsequent experiment the effects of the alpha2-adrenoceptor subtype selective alpha2C-antagonist and or the subtype non-selective antagonist atipamezole (Haapalinna, A. et al., Naunyn-Schmiedeberg's Arch. Pharmacol. 356 (1997) 570-582) on PCP-induced PPI-disruption was studied. The antagonists were given 20 min, and PCP or vehicle 10 min before start of the startle measurements. The method otherwise corresponds to the procedure described in Sallinen, J. et al., J. Neurosci. 18 (1998) 3035-42.

[2] = tested on: startle reflex and its prepulse inhibition in rats pretreated with the psychostimulant phencyclidine (PCP); experiment: PCP-induced PPI disruption, startle reflex and prepulse inhibition in rats pretreated with phencyclidine; assay type: in vivo; conditions: FIG. 2; for effect on PCP-disrupted prepulse inhibition (PPI): antagonist 20 min and PCP 10 min before measurement, vs vehicle+PCP
Procedure: as §1

Structure (SMILES): CN1CCN(c2ccc(Nc3c4ccccc4nc4ccccc34)cc2)CC1 [JP-1302, acridin-9-yl-[4-(4-methylpiperazin-1-yl)-phenyl]amine]
- effect on prepulse inhibition (PPI, sensorimotor gating) [1]: enhanced sensorimotor gating (prepulse inhibition %); also recorded: increased PPI dose-dependently and effectively
- effect on startle reflex (startle reactivity to intense pulses without prepulses) [1]: without significantly affecting the startle reactivity; also recorded: did not affect the startle reflex per se
- effect on PCP-disrupted prepulse inhibition (PPI) [2]: effectively counteracted; also recorded: especially clearly seen in the presence of PCP

Structure (SMILES): c1ccc(C2(N3CCCCC3)CCCCC2)cc1 [PCP, phencyclidine]
- effect of PCP on prepulse inhibition (PPI) ([2]; PCP given 10 min before measurement): clearly disrupted the PPI

Structure (SMILES): CCC1(c2cnc[nH]2)Cc2ccccc2C1 [atipamezole]
- effect on startle reactivity per se ([2]; PCP experiment): increased significantly the startle reactivity per se
- effect on PCP-disrupted prepulse inhibition (PPI) [2]: had no effect on the PPI phenomenon
